Source: patent US8168596B2, “Use of cycloartane compounds for treating arthritis” (NuLiv Holding Inc., priority 2008, dated 2012)

Experiments:
MMP1 [1] = experiment: Western blotting, kinase inhibitors on MMP1 protein expression induced by PMA in SW1353 cells; assay type: cell-based, human; conditions: UO126 10 μM, SP600125 25 μM, 24 h, then PMA 100 ng/mL 24 h
Description: Western blotting analysis was carried out based on the following procedure. Cells were washed and lysed in 0.2 mL of lysis buffer (1% NP-40, 50 mM Tris-HCl, pH 7.4, 180 mM NaCl, 1 mM EDTA, 1 mM PMSF, 1 mM NaF, 10 mM Na3VO4) for 30 min at 4° C. After centrifugation at 17500 g for 15 min, the supernatants of cell lysate were collected. Protein concentrations of the samples were measured using the bicinchoninic acid (BCA) protein assay kit according to the manufacturer's protocol (Pierce, Rockford, Ill., USA). Equal amounts of protein samples of concentrated conditioned medium (100 μg) or cell lysate supernatants (50 μg) were mixed with an appropriate volume of 4×SDS sampling buffer and separated on a 8% SDS-PAGE gel. The protein bands separated on the SDS-PAGE gel were blotted onto a polyvinylidene fluoride (PVDF) membrane. The blotted PVDF membrane was washed twice and blocked in freshly prepared Tris-buffered saline (TBS) containing 0.1% Tween-20 and 7% skim milk (TBST) for 2 hours at room temperature. The PVDF membrane was then incubated with a primary antibody against MMP1 protein (Santa Cruz Biotechnology, Santa Cruz, Calif.) for 18 hours at 4° C. Horseradish peroxidase-conjugated anti-goat antibody was used as the secondary antibody. Signals were visualized by an enhanced chemiluminescence kit (Clonetech, Palo Alto, Calif., USA) followed by exposure to X-ray films. […]

MMP1 [2] = conditions: UO126 10 μM, SP600125 25 μM, SB203580 5 μM, 24 h, then PMA 100 ng/mL 24 h
Description: The SW1353 cells were grown at 37° C. in a humidified incubator under 5% CO2 and 95% air in the culture medium as described above. The SW1353 cells were then sub-cultured into 6-well culture plates with serum free medium at an average amount of 2×10^5 cells per well and incubated for 24 hours. Then, the SW1353 cells were treated with 10 μM UO126 (MEK1-specific inhibitor), 25 μM, SP600125 (JNK-specific inhibitor), 5 μM SB203580 (p38-specific inhibitor), or 20 μM LY294002 (PI3K kinase inhibitor), and incubated for another 24 hours. Later, the SW1353 cells were treated with 100 ng/mL PMA and again incubated for 24 hours. Finally, the SW1353 cells were under cell extraction and the cell lysate was used for further luciferase analysis and western blotting analysis.
The SW1353 cells were grown at 37° C. in a humidified incubator under 5% CO2 and 95% air in the culture medium as described above. The SW1353 cells were then sub-cultured into 24-well culture plates and cultured for 24 hours. […] Following cell extraction, the cell lysate was centrifuged at 4° C., 20000 g for 30 minutes and then transferred to a 1.5 ml-microcentrifuge tube. Then, 100 μl buffer A (0.1 mM luciferin) and 350 μl buffer B (1 M MgSO4, 1 M Hepes (pH 7.8), 0.1 M ATP) were added into the microcentrifuge tube. The luciferase activity of final mixture was measured by a luminometer for 30 seconds.

- luciferase activity (control group 1 fold, PMA-only group 8 fold) (MMP1 [2]): 2.6 fold
Compound: N#CC(=C(/N)Sc1ccccc1N)/C(C#N)=C(/N)Sc1ccccc1N [UO126]
- protein expression by western blotting (effect of kinase inhibitors on MMP1 protein expression induced by PMA) (MMP1 [1]): significantly reduced
